According to US20210052600A1, “THERAPEUTIC AGENTS FOR STRESS URINARY INCONTINENCE AND INCOTINENCE OF FECES” (Takeda Pharmaceutical Company Limited, priority 2017, published 2021):

Tests used:
[1] = Plasma concentration of Compound A in healthy female volunteers after a single oral dose of Compound A′; details: no unit in table (ng/mL)
Protocol: In each period, the test subjects received any of Treatments A to D once according to Table 10, and change in the plasma concentration of the administered compound was measured over 24 hours after each Treatment.
Specifically, 100 mL of the injectable water containing 20 mg or 90 mg of Compound A′ based on its free form was supplemented with a sweetener, and this solution was orally administered as Compound A′. As a placebo for Compound A′, 100 mL of the injectable water was supplemented with a sweetener, and this solution was orally administered.

[2] = test system: urethral resistance increasing effect of Compound A′; assay: Influence of antagonists (SB 242084, methiothepin) on urethral resistance increasing effect of Compound A′ in rats; type: in vivo, rat; details: mean ± SEM; for LPP Post: 30 minutes after Compound A′; for LPP Increase: Post minus Pre; for LPP Pre: before administration
Protocol: Ninety female rats of SD strain were used. […] Isoflurane inhalation was added during the surgery, if necessary. In the experiment with intrathecal administration, the dura mater was exposed by laminectomy and then partially opened by incision, through which a catheter (PE-10) filled with saline was then implanted at the level of the L6-S1 site, followed by the closing of the incision. After opening of the abdomen, a catheter (PE-90) was inserted into the bladder. In order to secure reduced urethral resistance, unilateral nerve to iliococcygeus and pubococcygeus muscles was transected. For intraduodenal administration, another catheter (PE-50) was inserted into the duodenum in advance. The abdominal muscle and skin were each closed with sutures. Two (right and left) sites of abdominal skin near the diaphragm were cut to expose abdominal muscle. The bladder was emptied through the catheter, followed by the injection of 0.2 to 0.3 mL of Evans blue solution. Change in intravesical pressure was recorded using the bladder catheter via a pressure transducer, an electric signal amplifier, and an analog-to-digital converter. While change in intravesical pressure was recorded, the presence or absence of fluid leakage from the urethral orifice was observed under the electrical stimulation of the exposed abdominal muscle using an electrical stimulator and an isolator. […] The peak of the intravesical pressure during the stimulation of the abdominal muscle was measured, and the lowest pressure at which the fluid leakage was observed among the trials was defined as LPP for the electrical abdominal muscle stimulation method. In order to examine whether the urethral resistance increasing effect of Compound A′ is based on its agonistic potency on 5-HT2C receptors, SB 242084, methiothepin, or a vehicle was intravenously administered, and Compound A′ or a vehicle was intraduodenally administered 5 minutes later. SB 242084 was dissolved in a mixed solution of N,N-dimethylacetamide and polyethylene glycol 400 (1:1) and administered at 0.03 mg/0.5 mL/kg, 0.1 mg/0.5 mL/kg and 0.3 mg/0.5 mL/kg. Methiothepin was dissolved in saline and administered at 0.03 mg/0.5 mL/kg. 0.1 mg/0.5 mL/kg and 0.3 mg/0.5 mL/kg. Compound A′ was suspended in 0.5% MC and administered at 3 mg/mL/kg. LPP was measured again 30 minutes after Compound A′ administration. In order to examine where Compound A′ works in the body to increase urethral resistance, the blocking of the effect of Compound A′ was confirmed by blocking the functions of Compound A′ by giving methiothepin at a particular site in the body. Particularly, in the experiment with intrathecal administration, methiothepin or a vehicle was intrathecally administered, and Compound A′ or a vehicle was intraduodenally administered 5 minutes later. Methiothepin was dissolved in saline and 20 μL of the obtained solution was administered. Compound A′ was suspended in 0.5% MC and administered at 3 mg/mL/kg. LPP was measured again 30 minutes after Compound A′ administration.
Regarding change in LPP before and after drug administration, the differences between the mean values of the Compound A′-treated and vehicle-treated groups were analyzed by the Student's t test or the Welch's test. In order to analyze the influence of the antagonists on the effect of Compound A′, the differences between the mean values of the SB 242084- or methiothepin- and Compound A′-administered group and the vehicle- and Compound A′-administered group were analyzed by the one-tailed Williams' test.

[3] = test system: urethra-closing reflex response; assay: Urethra-closing reflex response induced by intravesical pressure rise in rats; type: in vivo, rat; details: 3 mg/kg i.d., mean ± SEM
Protocol: Thirty-two female rats of SD strain were used. The rats were anesthetized with urethane. Isoflurane inhalation was added during the surgery, if necessary. Their spinal cord was transected at the T8-T9 (the eighth thoracic cord—the ninth thoracic cord) level to eliminate the reflex voiding and to inhibit the transition from the urine storage phase to the voiding phase in the voiding cycle. After opening of the abdomen, the bladder neck was ligated with suture, and a catheter (PE-100) was inserted into the bladder. The bladder catheter was connected to a pressure transducer and a saline-containing reservoir via three-way stopcocks. A microtip transducer catheter was inserted from the urethral orifice toward the bladder so that its transducer was inserted into the urethra. Local change in pressure within the urethra (intraurethral pressure) was recorded via an electric signal amplifier and an analog-to-digital converter. […] Then, the reservoir was brought back to the original position to adjust the intravesical pressure to its baseline. Such change in intraurethral pressure induced by intravesical pressure rise was repeatedly measured, and the mean value from the last 2 trials was used as a Pre value. The vehicle used was 0.5% MC. […] Thirty minutes after administration, the change in intraurethral pressure induced by intravesical pressure rise was measured again and used as a Post value. The average value before intravesical pressure rise was subtracted from the average value during intravesical pressure rise, and the subtracted value was used as urethra-closing reflex response. The ratio of the Post value to the Pre value was calculated.

[4] = Body weight of obese rats (DIO-F344) under continuous subcutaneous administration and effective plasma concentration; type: in vivo, rat; details: for Change in body weight (% change): mean ± SEM
Protocol: Forty male DIO-F344 rats bred with high fat diet (42 kcal % fat) were used. On the day before surgery, the rats were grouped on the basis of their body weight. Compound A′ and Compound B′ were each dissolved in saline. Osmotic pumps filled with the Compound A′ or Compound B′ solution were subcutaneously implanted in the rats under isoflurane anesthesia. The body weight just after surgery was used as a Pre value, and the body weight was measured every day until 14 days after surgery. Regarding the averages in the body weight on Day 14, the difference in the mean averages of the drug-treated group and the vehicle-treated group was analyzed by the one-tailed Williams' test.
The average Day 14 plasma concentration from the values of each rat measured in the morning and afternoon was used as a plasma concentration for the animal. The rate of change in body weight was calculated from the values measured just after and 14 days after osmotic pump implantation. The rate (average rate) of change of the vehicle group was subtracted from that of each drug-administered rat to plot the plasma concentration and the change in body weight. The plasma concentration at which the drug lowered the body weight by 3.8% was calculated by linear regression analysis.

[5] = 20 mg single oral dose, Predose
[6] = 90 mg single oral dose, Predose
[7] = SB 242084 0 mg/kg i.v. (vehicle) + Compound A′ 3 mg/kg i.d.
[8] = methiothepin 0 μg intrathecal (vehicle) + Compound A′ 3 mg/kg i.d.
[9] = methiothepin 0 mg/kg i.v. (vehicle) + Compound A′ 3 mg/kg i.d.

CC(C)N(C)c1cnc2c(n1)OCCNC2.Cl [Compound A′, N-methyl-N-(1-methylethyl)-6,7,8,9-tetrahydropyrazino[2,3-f][1,4]oxazeine-3-amine]
plasma concentration of compound A, Mean ([1]; 20 mg single oral dose, 0.5 hr): 29.21
plasma concentration of compound A, Median ([1]; 20 mg single oral dose, 0.5 hr): 28.40
plasma concentration of compound A, Mean ([1]; 20 mg single oral dose, 1 hr): 25.19
plasma concentration of compound A, Median ([1]; 20 mg single oral dose, 1 hr): 24.10
plasma concentration of compound A, Mean ([1]; 20 mg single oral dose, 2 hr): 20.46
plasma concentration of compound A, Median ([1]; 20 mg single oral dose, 2 hr): 19.20
plasma concentration of compound A, Mean ([1]; 20 mg single oral dose, 3 hr): 14.38
plasma concentration of compound A, Median ([1]; 20 mg single oral dose, 3 hr): 13.10
plasma concentration of compound A, Mean ([1]; 20 mg single oral dose, 6 hr): 3.476
plasma concentration of compound A, Median ([1]; 20 mg single oral dose, 6 hr): 3.760
plasma concentration of compound A, Mean ([1]; 20 mg single oral dose, 8 hr): 1.416
plasma concentration of compound A, Median ([1]; 20 mg single oral dose, 8 hr): 1.590
plasma concentration of compound A, Mean ([1]; 20 mg single oral dose, 12 hr): 0.1327
plasma concentration of compound A, Median ([1]; 20 mg single oral dose, 12 hr): 0.000
plasma concentration of compound A, Mean [1, 5]: 0.000
plasma concentration of compound A, Median [1, 5]: 0.000
plasma concentration of compound A, Mean ([1]; 90 mg single oral dose, 0.5 hr): 127.3
plasma concentration of compound A, Median ([1]; 90 mg single oral dose, 0.5 hr): 114.0
plasma concentration of compound A, Mean ([1]; 90 mg single oral dose, 1 hr): 126.0
plasma concentration of compound A, Median ([1]; 90 mg single oral dose, 1 hr): 113.0
plasma concentration of compound A, Mean ([1]; 90 mg single oral dose, 2 hr): 152.8
plasma concentration of compound A, Median ([1]; 90 mg single oral dose, 2 hr): 145.0
plasma concentration of compound A, Mean ([1]; 90 mg single oral dose, 3 hr): 122.4
plasma concentration of compound A, Median ([1]; 90 mg single oral dose, 3 hr): 127.0
plasma concentration of compound A, Mean ([1]; 90 mg single oral dose, 6 hr): 52.81
plasma concentration of compound A, Median ([1]; 90 mg single oral dose, 6 hr): 47.30
plasma concentration of compound A, Mean ([1]; 90 mg single oral dose, 8 hr): 24.69
plasma concentration of compound A, Median ([1]; 90 mg single oral dose, 8 hr): 20.30
plasma concentration of compound A, Mean ([1]; 90 mg single oral dose, 12 hr): 5.612
plasma concentration of compound A, Median ([1]; 90 mg single oral dose, 12 hr): 4.450
plasma concentration of compound A, Mean [1, 6]: 0.000
plasma concentration of compound A, Median [1, 6]: 0.000
LPP Post [2, 7]: 72.4 ± 9.5 cmH2O
LPP Increase [2, 7]: 26.4 ± 5.9 cmH2O
LPP Pre [2, 7]: 46.0 ± 5.1 cmH2O
LPP Post [2, 8]: 72.1 ± 5.7 cmH2O
LPP Increase [2, 8]: 31.8 ± 6.2 cmH2O
LPP Pre [2, 8]: 40.3 ± 5.6 cmH2O
LPP Post [2, 9]: 61.0 ± 8.3 cmH2O
LPP Increase [2, 9]: 15.1 ± 4.0 cmH2O
LPP Pre [2, 9]: 45.9 ± 4.4 cmH2O
Urethra-closing reflex response Post ([3]; 30 minutes after administration, intravesical pressure rise by 50 cm H2O): 10.40 ± 1.78 cmH2O
Urethra-closing reflex response Pre ([3]; before administration, intravesical pressure rise by 50 cm H2O): 3.58 ± 0.42 cmH2O
Urethra-closing reflex response Ratio (Post/Pr) ([3]; ratio of Post value to Pre value): 2.82 ± 0.29
Change in body weight (% change) ([4]; 1.35 mg/animal/day s.c. osmotic pump, day 3): −1.5 ± 0.5 % change
Change in body weight (% change) ([4]; 1.35 mg/animal/day s.c. osmotic pump, day 7): −2.3 ± 0.8 % change
Change in body weight (% change) ([4]; 1.35 mg/animal/day s.c. osmotic pump, day 10): −4.5 ± 0.8 % change
Change in body weight (% change) ([4]; 1.35 mg/animal/day s.c. osmotic pump, day 14): −4.7 ± 0.8 % change
Change in body weight (% change) ([4]; 4.5 mg/animal/day s.c. osmotic pump, day 3): −0.6 ± 0.2 % change
Change in body weight (% change) ([4]; 4.5 mg/animal/day s.c. osmotic pump, day 7): −2.4 ± 0.4 % change
Change in body weight (% change) ([4]; 4.5 mg/animal/day s.c. osmotic pump, day 10): −3.9 ± 0.4 % change
Change in body weight (% change) ([4]; 4.5 mg/animal/day s.c. osmotic pump, day 14): −4.6 ± 0.6 % change
Change in body weight (% change) ([4]; 13.5 mg/animal/day s.c. osmotic pump, day 3): −2.7 ± 0.2 % change
Change in body weight (% change) ([4]; 13.5 mg/animal/day s.c. osmotic pump, day 7): −4.8 ± 0.3 % change
Change in body weight (% change) ([4]; 13.5 mg/animal/day s.c. osmotic pump, day 10): −6.9 ± 0.5 % change
Change in body weight (% change) ([4]; 13.5 mg/animal/day s.c. osmotic pump, day 14): −7.8 ± 0.5 % change
plasma concentration at which the drug lowered the body weight by 3.8% ([4]; DIO-F344 rats, day 14, vehicle-subtracted, linear regression analysis): 670 ng/mL
